Six compounds from PubChem BioAssay (NCI) can be followed below.

Holding throughout (assay): DTP human tumour cell line panel, 48 h
Assay [1] has as its system SW-620 colon.
Assay [2] deals with NCI/ADR-RES ovarian.
The subject of assay [3] is BT-549 breast.
Assay [4] relates to SK-OV-3 ovarian.
Assay [5] has as its system OVCAR-5 ovarian.
Assay [6] relates to MOLT-4 leukemia.
Assay [7] has as its system COLO 205 colon.
The subject of assay [8] is 786-0 renal.
Assay [9] concerns UACC-257 melanoma.
Assay [10] relates to DU-145 prostate.
In assay [11] the test system is OVCAR-8 ovarian.
Assay [12] deals with MALME-3M melanoma.
The test system of assay [13] is SNB-19 CNS.
Assay [14] has as its system RPMI-8226 leukemia.
The test system of assay [15] is T-47D breast.
The subject of assay [16] is NCI-H23 lung.
Assay [17] has as its system HOP-92 NSCLC.
For assay [18], the system named is SF-295 CNS.
Assay [19] deals with NCI-H522 lung.

What is called TGI is the concentration giving total growth inhibition. Low values mean more potent growth arrest, high ones less potent growth arrest.

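1) Cells in 96-well plates. 2) Compound, 48 h, 5 concentrations. 3) Linear interpolation between surrounding doses. 4) Unreached endpoint = highest concentration. TGI: concentration producing complete growth inhibition.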

`C[C@H](NC(=O)CNC(=O)CCCCCC(=O)NCC(=O)N[C@@H](C)C(=O)OCc1ccccc1)C(=O)OCc1ccccc1`: the concentration for total growth inhibition (TGI) in assay [1], in [2], in [3], in [4], in [5] and in [6] was greater than 100 µM each time. Moreover, the TGI in [7], in assay [8], in [9], in [10], in [11] and in assay [12] was greater than 100 µM in each case. The TGI in assay [13], in assay [14], in assay [15], in assay [16], in [17] and in assay [18] was greater than 100 µM in each case.
For `NC(=O)c1sc2nc3ccccc3n2c1N`, the TGI is greater than 100 µM in assay [1]; greater than 100 µM in assay [2]; 76.8 µM in assay [3]; 89.4 µM in assay [4]; greater than 100 µM in assay [5]; greater than 100 µM in assay [6]. The TGI in [7], in assay [8], in [9], in assay [10], in [11] and in assay [12] was greater than 100 µM in each case. In addition, the TGI in assay [13] was greater than 100 µM; in [14], greater than 100 µM; in assay [15], greater than 100 µM; in assay [16], 41.4 µM; in [17], greater than 100 µM; in assay [18] it was 50.8 µM.
On to `CCN1C[C@]2(C)CC[C@H](OC)C34C5C[C@@H]6[C@@H](OC)C[C@@](OC)(C5[C@H]6OCc5ccccc5)C(C13)[C@H](OC(C)=O)[C@@H]42` (some centres not stated), for which the TGI in assay [1], in assay [2], in assay [3], in [4], in assay [5] and in assay [6] was greater than 100 µM throughout. The TGI in assay [7], in assay [8], in assay [9], in [10], in assay [11] and in assay [12] was greater than 100 µM in each case. The TGI in assay [13], in assay [14], in [15], in [16], in assay [17] and in [18] was greater than 100 µM in each case.
On to `COc1ccc(NC(=O)C(=O)Cc2nc3ccc(C(=O)c4ccccc4)cc3[nH]c2=O)c([N+](=O)[O-])c1`, for which the TGI in assay [1] was 79.8 µM; in [2], 33.2 µM; in [19] it was 51.4 µM; in [3], greater than 100 µM; in [4] it was greater than 100 µM; in assay [5], greater than 100 µM. The TGI in assay [6] is 40.1 µM; in [7] it was 40 µM; in assay [8], greater than 100 µM; in assay [9] it was greater than 100 µM; in assay [10] it was greater than 100 µM; in [11], 49 µM. Further, the concentration for total growth inhibition (TGI) in [12] was greater than 100 µM; in assay [13] it was greater than 100 µM; in [15] it was 68.9 µM; in assay [16], 65.4 µM; in [17], 74.4 µM; in [18] it was greater than 100 µM.
Regarding `BrCc1ccc(CBr)c2c1-c1c(CBr)ccc3ccc(CBr)c-2c13`, the TGI in assay [1], in assay [2], in assay [19], in [3], in assay [4] and in assay [5] was greater than 100 µM each time. For the same compound, the TGI in assay [6], in assay [8], in assay [9], in assay [10], in [11] and in [12] was greater than 100 µM each time. The TGI in assay [13], in [14], in [15], in assay [17] and in assay [18] was greater than 100 µM throughout.
For `COc1ccc(NC/C=C/C(=C/COC(C)=O)OC(C)=O)cc1`, the TGI in [1] was found to be 3.49 µM; in [2], 7.04 µM; in [19] it was 4.78 µM; in assay [3], 3.16 µM; in assay [4], 28.2 µM; in assay [5], 3.38 µM. Moreover, the TGI in assay [6] was greater than 100 µM; in [7], 3.4 µM; in assay [8], 2.44 µM; in assay [9], 5.04 µM; in assay [10] it was 10.2 µM; in assay [11], 16.1 µM. In addition, the TGI in assay [12] was determined as 5.57 µM; in [13], 9.29 µM; in assay [14] it was 0.829 µM; in assay [15], 5.45 µM; in assay [17] it was 3.87 µM; in [18] it was 4.97 µM.
